Assay results reported in ChEMBL document CHEMBL1135940, “2-Amino-4-[3'-hydroxyphenyl]-4-hydroxybutanoic acid; a potent inhibitor of rat and recombinant human kynureninase” (Bioorg Med Chem Lett, 2002).

Columns and labels:
Kynureninase [1] = target: T1, Kynureninase (Rattus norvegicus, UniProt P70712); experiment: Tested for binding affinity against kynureninase enzyme from rat
T1 sequence (P70712 whole entry): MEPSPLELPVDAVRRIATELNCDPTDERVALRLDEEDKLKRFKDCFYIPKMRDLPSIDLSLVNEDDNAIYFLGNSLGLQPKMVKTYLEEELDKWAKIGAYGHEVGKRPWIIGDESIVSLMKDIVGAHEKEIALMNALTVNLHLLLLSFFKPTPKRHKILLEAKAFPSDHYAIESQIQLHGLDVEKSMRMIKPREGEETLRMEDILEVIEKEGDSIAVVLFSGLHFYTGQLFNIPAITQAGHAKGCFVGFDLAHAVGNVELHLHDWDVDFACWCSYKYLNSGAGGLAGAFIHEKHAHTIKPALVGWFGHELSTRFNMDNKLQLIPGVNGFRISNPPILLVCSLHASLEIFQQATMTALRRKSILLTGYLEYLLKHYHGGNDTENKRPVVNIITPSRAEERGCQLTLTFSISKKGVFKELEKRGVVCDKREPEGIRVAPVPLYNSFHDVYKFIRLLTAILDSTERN

Kynureninase [2] = target: T2, Kynureninase (Homo sapiens, UniProt Q16719); experiment: Tested for binding affinity against kynureninase enzyme from human
T2 sequence (Q16719 whole entry): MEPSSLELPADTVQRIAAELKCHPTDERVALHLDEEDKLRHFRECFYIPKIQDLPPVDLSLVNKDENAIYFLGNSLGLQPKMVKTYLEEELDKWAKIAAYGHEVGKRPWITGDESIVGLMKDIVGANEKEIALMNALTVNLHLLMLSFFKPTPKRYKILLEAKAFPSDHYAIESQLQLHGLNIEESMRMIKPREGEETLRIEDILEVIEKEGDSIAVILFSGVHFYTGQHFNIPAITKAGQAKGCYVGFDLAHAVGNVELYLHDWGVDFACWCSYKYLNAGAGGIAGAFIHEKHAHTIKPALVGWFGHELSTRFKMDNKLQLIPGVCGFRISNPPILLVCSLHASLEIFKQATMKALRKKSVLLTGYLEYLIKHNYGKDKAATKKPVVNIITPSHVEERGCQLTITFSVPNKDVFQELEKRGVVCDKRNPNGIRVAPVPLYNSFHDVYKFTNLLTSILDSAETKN

Work on `NC(CC(O)c1cccc(O)c1)C(=O)O` (configuration not stated) yielded a Ki (Kynureninase [1]) of 130 nM and a Ki (Kynureninase [2]) of 100 nM.
